The values that follow are results of earlier work, collected in US7183392B2, “Site-specific, covalent bioconjugation of proteins” (Zyomyx, Inc., priority 2000, dated 2007).

Data set [1] deals with Helix A / Helix B parallel heterodimer. The conditions noted are these: parallel heterodimer of Helix A with Helix B; read-out: dissociation constant.
For data set [2] the following is noted: aqueous and polar environments.
The next data set addresses RNA aptamer. The conditions noted are these: 11 amino acid sequence, known RNA aptamer.

Consider “EYQALEKEVAQLEAENNALEKEVAQLEHEG [Helix A]”, for which the Kd in data set [1] is approximately 6 nM. Moreover, the solubility entry in data set [2] was “very soluble”.

“EYQALKKKVAQLKAKNNALKKKVAQLKHKG [Helix B]”: the Kd in data set [1] was approximately 6 nM. The solubility result in data set [2] is reported as “very soluble”.

With “substance P: 11 amino acid long peptide sequence that binds a known RNA aptamer”, at RNA aptamer, the Kd is approximately 190 nM.
